In paper PMC3684613 (PLoS ONE, 2013):
Like-named read-outs stand apart in the source and are kept apart here.

Columns and labels:
P. falciparum 3D7 [1] = assay: DAPI stain fluorescent high content imaging assay, P. falciparum 3D7 (confirmatory screen, Avery); settings: for EC50: 3D7, read-out: EC50_nM; for inhibition of growth at 5 µM: 3D7, read-out: percent_inh @ 5 uM
P. falciparum 3D7 [2] = test system: P. falciparum 3D7; set-up: method as in ChEMBL-NTD; settings: ref ChEMBL-NTD, cited from earlier work
[3] = values follow the order of the source (GNF; GSK; StJude)
[4] = original screening data, source (GSK, GNF, StJude), several values separated by ';' in order of sources

SMILES	EC50 (P. falciparum 3D7 [1]; Plasmodium falciparum)	inhibition of growth at 5 µM (P. falciparum 3D7 [1]; Plasmodium falciparum)	also measured
CCOc1ccc(CN2CCN(CC(O)COc3ccc(OCC(O)CN4CCN(Cc5ccc(OCC)cc5)CC4)cc3)CC2)cc1 (stereo not shown) [MMV007092]	1200 nM	97%	EC50 (P. falciparum 3D7 [2]; [3]): 1370 nM
CN(C)CCNc1cc(-c2ccccc2)nc2ccccc12 [MMV006704]	4000 nM		inhibition of growth at 2 µM (P. falciparum 3D7 [1]; Plasmodium falciparum, 3D7, read-out: percent_inh @ 2 uM): 92%; EC50 (P. falciparum 3D7 [2]; [4]): 692 nM
CCOc1cc2c(cc1OCC)C(c1cc(C)c(O)c(C)c1)NCC2 (stereo not shown) [MMV000483]	683 nM	97%	EC50 (P. falciparum 3D7 [2]; [4]): 1830 nM
CCCCc1ccc(NS(=O)(=O)c2cc3c4c(c2)CCN4C(=O)CC3)cc1 [MMV001255]	538 nM	96%	EC50 (P. falciparum 3D7 [2]; source StJude): 15000 nM
CC(C)OCc1cc(CN2CCN(c3cccc(Cl)c3)CC2)c(O)c2ncccc12 [MMV000788]	697 nM	98%	EC50 (P. falciparum 3D7 [2]; source StJude): 941 nM
COc1cc(CNCCc2ccc(Cl)cc2)cc(OC)c1O [MMV128432]	1790 nM	97%	EC50 (P. falciparum 3D7 [2]; [3]): 6890 nM
Cc1cc(NC(=O)c2ccc(-c3ccccc3)cc2)no1 [MMV018984]	693 nM	95%	EC50 (P. falciparum 3D7 [2]; [4]): 1020 nM
CCCCC(O)(c1ccc(Cl)cc1)C(CN1CCOCC1)c1ccc(Cl)cc1 (stereo not shown) [MMV000619]	1380 nM	98%	EC50 (P. falciparum 3D7 [2]; source StJude (SJ ids)): 4010 nM
Cc1ccc(C2CC(C(F)(F)F)n3nc(C(=O)N4CCN(C(c5ccccc5)c5ccccc5)CC4)cc3N2)cc1 (stereo not shown) [MMV000699]	454 nM	98%	EC50 (P. falciparum 3D7 [2]; source StJude (SJ ids)): 668 nM
O=C(CCc1ccccc1)c1ccccc1OCC(O)CN1CCCCC1 (stereo not shown) [MMV009015]	676 nM	97%	EC50 (P. falciparum 3D7 [2]; source GNF): 881 nM
Cc1ccc2nc(C)cc(Nc3cccc(C(F)(F)F)c3)c2c1 [MMV000326]	1170 nM	98%	EC50 (P. falciparum 3D7 [2]; source StJude (SJ ids)): 879 nM
FC(F)(F)c1cccc(Nc2nc3ccccc3nc2Nc2cccc(C(F)(F)F)c2)c1 [MMV665794]	313 nM	99%	EC50 (P. falciparum 3D7 [2]; source GSK (TCMDC ids)): 137 nM
Oc1c2c(nc3cc(-c4ccccc4)nn13)CCCC2 [MMV008270]		77%	EC50 (P. falciparum 3D7 [2]; [4]): 1930 nM
CCN(CC)c1ccc(NC(=O)c2cccs2)cc1 [MMV009060]		88%	EC50 (P. falciparum 3D7 [2]; source GNF): 414 nM
CCCc1c(C)nc2ccc(Br)cc2c1O [MMV666095]	1190 nM	64%	EC50 (P. falciparum 3D7 [2]; source GNF (GNF-Pf ids)): 1510 nM
O=C(NC(c1ccccc1)c1ccc2cccnc2c1O)c1ccccc1 (stereo not shown) [MMV666080]	1170 nM	95%	EC50 (P. falciparum 3D7 [2]; source GNF): 533 nM; EC50 (P. falciparum 3D7 [2]; source GSK): 428 nM
COCCN(C(=O)Cc1cccs1)C(C(=O)NCc1ccc(OC)cc1)c1ccc(C(C)C)cc1 (stereo not shown) [MMV666105]	1190 nM	92%	EC50 (P. falciparum 3D7 [2]; source GSK): 845 nM
Nc1ccc(-c2nc3cc(Cc4ccc5[nH]c(-c6ccc(N)cc6)nc5c4)ccc3[nH]2)cc1 [MMV665943]	1420 nM	100%	EC50 (P. falciparum 3D7 [2]; source GNF (GNF-Pf ids)): 243 nM; EC50 (P. falciparum 3D7 [2]; source GSK (TCMDC ids)): 512 nM; EC50 (P. falciparum 3D7 [2]; source StJude (SJ ids)): 1080 nM
O=C1CC(O)(C(F)(F)C(F)(F)F)Oc2ccccc21 (stereo not shown) [MMV000972]		95%	EC50 (P. falciparum 3D7 [2]; [4]): 2570 nM
O=C(Nc1ccc(CN2CCOCC2)cc1)c1ccc(-c2ccc(Br)cc2)o1 [MMV665901]	1360 nM	96%	EC50 (P. falciparum 3D7 [2]; source GSK): 1120 nM
COc1ccc(-c2nonc2NC(=O)c2cccc(Cl)c2)cc1OC [MMV020660]			% inh. At 2.5 uM (P. falciparum 3D7 [1]; 2.5 uM (Comment column; solubility issue at 5 uM)): 97%; EC50 (P. falciparum 3D7 [2]; [4]): 876 nM
O=C(CSc1ccc2nnc(-c3cccc(F)c3)n2n1)Nc1ccc2c(c1)OCO2 [MMV665918]		92%	EC50 (P. falciparum 3D7 [2]; source GNF): 2110 nM
Cc1ccc(C(=O)c2oc3ccc4c(C)cc(=O)oc4c3c2C)cc1 [MMV086103]	906 nM	96%	EC50 (P. falciparum 3D7 [2]; [3]): 1030 nM
CCn1c(SCC(=O)Nc2cc(C(F)(F)F)ccc2Cl)nc2ccccc2c1=O [MMV666103]	1000 nM	91%	EC50 (P. falciparum 3D7 [2]; source GSK): 397 nM
OC(CNCc1ccccc1)Cn1c2ccccc2c2ccccc21 (stereo not shown) [MMV000839]	1080 nM	95%	EC50 (P. falciparum 3D7 [2]; source StJude (SJ ids)): 3760 nM
COc1cc(C(=O)ON=C(N)Cc2cccc3ccccc23)cc(OC)c1OC [MMV666687]	782 nM	99%	EC50 (P. falciparum 3D7 [2]; [3]): 280 nM
CC1CCN(Cc2ccc(NC(=O)c3cc4ccc5cccnc5c4[nH]3)cc2)CC1 [MMV020549]	274 nM	97%	EC50 (P. falciparum 3D7 [2]; source GSK (TCMDC id)): 779 nM
COc1ccccc1CNC(=O)CCn1c(=O)[nH]c2ccccc2c1=O [MMV665916]	72.6 nM	64%	EC50 (P. falciparum 3D7 [2]; source GNF (GNF-Pf id)): 537 nM
